Reference: US11364211B2, “Methods for selecting phosphatase selective and non-selective phosphatase inhibitors” (MEDICAL RESEARCH COUNCIL, priority 2015, dated 2022)
Entries after “also recorded” stand apart in the source; their conditions may differ.

Columns and labels:
ATF4 = assay: Induction of ATF4 expression in cells (immunoblot); format: cell-based, human; conditions: HeLa cells, 10 μM
Protocol: (§1) Cells (90,000 cells/ml) were plated in a 24-well plate and treated as indicated. At the end of treatment cells were lysed in 150 μl Laemmli Buffer. Lysates were boiled at 95° C. for 5 minutes, sonicated and resolved on 4-12% Bolt Bis-Tris Plus Gels (Thermo Fisher Scientific). Proteins were transferred to the nitrocellulose membrane using the iBlot 2 system (Thermo Fisher Scientific) and analysed using the following antibodies: e-IF2α-P (44-728G, Thermo Fisher Scientific, 1:1000), e-IF2α (ab5369, Abcam, 1:1000), tubulin (T5168, Sigma-Aldrich, 1:4000), BiP (610978, BD Biosciences Pharmingen, 1:1000), ATF4 (sc-200, Santa Cruz Biotechnology, 1:500), Ppp1r15a (10449-1-AP, Proteintech, 1:1000) and Ppp1r15b (14634-1-AP, Proteintech, 1:1000). Proteins were visualized using ECL Prime (GE Healthcare).

MEFs = assay: Translation rates by 35S-methionine labelling in r15a mut/mut or r15b mut/mut MEFs; format: cell-based, mouse
Protocol: HeLa cells were maintained in Dulbecco's Modified Eagle's Media (DMEM) supplemented with penicillin, streptomycin, glutamine and 10% fetal bovine serum (FBS). Ppp1r15a −/− and Ppp1r15b −/− MEF cells were maintained in DMEM supplemented with penicillin, streptomycin, glutamine, 55 μM β-mercaptoethanol, 1X non-essential amino acids (Sigma) and 10% FBS.
Cells (90,000 cells/ml) were plated in 12-well plates, treated as indicated, labelled with 100 μCi/ml ^35S-methionine (Hartmann Analytic) for 10 minutes at 37° C., washed with ice-cold PBS and lysed in 120 μl Laemmli Buffer. Lysates were boiled at 95° C. for 5 minutes, sonicated and resolved on 4-12% Bolt Bis-Tris Plus Gels (Thermo Fisher Scientific). Gels were then stained with InstantBlue (Expedeon) and analyzed by phosphorimaging.

PP1c [1] = target: T1, PP1c (Homo sapiens, UniProt P36873); assay: PP1c catalytic activity assay (EnzChek); format: biochemical; conditions: purified PP1c 30 nM, 30 minutes at 4° C.
T1 sequence (P36873 whole entry): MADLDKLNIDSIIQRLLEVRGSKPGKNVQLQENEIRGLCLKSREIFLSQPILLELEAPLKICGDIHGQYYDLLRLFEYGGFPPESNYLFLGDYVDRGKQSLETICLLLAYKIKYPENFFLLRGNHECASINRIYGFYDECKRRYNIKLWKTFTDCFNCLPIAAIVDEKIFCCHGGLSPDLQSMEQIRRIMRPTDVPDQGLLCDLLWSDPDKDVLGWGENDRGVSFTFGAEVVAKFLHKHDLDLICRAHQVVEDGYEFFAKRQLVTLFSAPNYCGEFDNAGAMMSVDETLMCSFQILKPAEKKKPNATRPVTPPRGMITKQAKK
Protocol: Residual activity of PP1c was then measured using the EnzChek Phosphatase Assay Kit (Thermo Fisher Scientific) according to the supplier's instructions.

[2] = system: eIF2α phosphorylation in HeLa cells; assay: eIF2α phosphorylation in cells in the absence of stress (immunoblot); format: cell-based, human; conditions: for eIF2α phosphorylation in the absence of stress: human/HeLa cells, basal conditions, TST3 at 10 μM
Protocol: For immunoblots, HeLa cells (80,000 cells/ml) were plated in 12-well plates 24 hours before each experiment. Immediately after the indicated treatments, cells were lysed in 75 μl Laemmli Buffer, boiled at 95° C. for 5 minutes and sonicated. Proteins were separated and analysed as described (Tsaytler et al., Science, 332, 91-94, 2011) with the following antibodies: phospho-elf2α [pS52] and PPP1R15A/GADD34 (10449-1-AP; ProteinTech Group, 1/1000 dilution).
Human cells were treated with a PPP1R15B inhibitor and eIF2α phosphorylation was monitored over time. […] This was manifested between 1 and 7.5 hours after addition of the compound of Example 1. […] Indeed, the inventors noticed that PPP1R15A was induced at the late time points following addition of the compound of Example 1 (see Assay 3). […] Furthermore, this establishes that the compound of Example 1 spares PPP1R15A. This assay can serve to identify other selective PPP1R15B inhibitors.
as §1

[3] = system: dorsal root ganglia culture (DRG) from PMP22 mutant mice; assay: Myelination in DRG cultures from PMP22 mutant mice; format: cell-based, mouse; conditions: 5 nM compound, 14 days
Protocol: Dorsal root ganglia (DRG) dissected from wild-type or Pmp22Tr-J (PMP22mutant) (Henry et al., Neuropathol. Exp. Neurol., 42, 688-706, 1983) embryo at 13.5 or […] (E13.5) were cultured on collagen coated coverslips in neurobasal media supplemented with 4 g/l glucose, 2 mM L-glutamine, 2% B27 supplement and 50 ng/ml neuronal growth factor (NGF) for 7 days. To differentiate Schwann cells and induce myelination, the cultured DRGs were then maintained in C-media (MEM media supplemented with 4 g/l glucose, 2 mM L-glutamine, 10% FCS, 50 ng/ml NGF). The C-media was replaced every other day with freshly added 50 μg/ml ascorbic acid ±5 nM of compound of Example I and cultured for 14 days for myelination by the Schwann cells. The cultured DRGs were then fixed in 4% paraformaldehyde and immunostained with MBP (Rat Myelin basic protein, 1/250 dilution, ab73498).

PP1c [4] = target: T1, PP1c; assay: SPR binding to PP1c alone immobilized on chip
Protocol: The streptavidin coated surface was activated by 1 minute injection with a solution of 50 mM NaOH and 1 M NaCl three times at a flow rate of 10 μl/min. bio-GBZ or bio-PP1c was diluted in the running buffer (50 mM Tris pH 7.5, 100 mM NaCl, 0.1 mM EGTA, 0.05% Tween 20, 0.1% DMSO) and injected at approximately 300 nM concentration at a flow rate of 10 μl/min directly to streptavidin coated surface to reach immobilization level of bio-GBZ or bio-PP1c corresponding to ˜200 and 6000 RU, respectively. A blank immobilization was performed for one of the SA sensor chip surface to use as a reference.
With minor deviations, the same procedure and conditions were used in all binding experiments. Small molecules were stored as 50 mM stock solutions in 100% DMSO. Prior to determining binding constants, serial dilutions of either 12 or 8 concentrations of the compounds were prepared in the running buffer in a 96-well plate. […] This was followed by 1 minute stabilization period, to wash off any unspecific binding. Then, without regenerating the surface, the compound dilution series was injected onto the surface of the chip at a flow rate of 30 μl/min for 1 minute, followed by 2 minutes dissociation time. […]
Kinetic experiments are carried out using different concentrations of the compound and their respective equilibrium binding levels determined.

| SMILES | expression of ATF4 in cells (ATF4) | translation attenuation upon inactivation of R15A (MEFs) | inhibition of PP1c in enzymatic assay (PP1c [1]; listed as TST3) | eIF2α phosphorylation in the presence of GBZ ([2]; HeLa cells, TST3+GBZ at 10 μM) | time after addition at which eIF2α phosphorylation returned to basal levels ([2]; absence of stress) [h] | eIF2α phosphorylation in the absence of stress [2] | eIF2α phosphorylation in the absence of stress ([2]; listed as TST3) | myelination (length of myelin internodes) [3] | inhibition of PP1c in enzymatic assay (PP1c [1]) | binding to PP1c alone (in words) (PP1c [4]) |
| --- | --- | --- | --- | --- | --- | --- | --- | --- | --- | --- |
| [H]/N=C(\N)NN=Cc1cccc(Cl)c1Cl [Example 1, (E)-2-(2,3-dichlorobenzylidene)hydrazine-1-carboximidamide] | induced expression | rendered persistent | does not inhibit PP1c; also recorded: doesn't inhibit PP1 | persistently induces eIF2α phosphorylation; also recorded: rendered persistent | 10 | induced eIF2α phosphorylation; also recorded: induces a transient phosphorylation of eIF2α | transiently induces eIF2α phosphorylation; also recorded: rapidly and transiently increased eIF2α phosphorylation | improved myelination; also recorded: increased the length of myelin internodes |  |  |
| N=C(N)N/N=C/c1c(Cl)cccc1Cl [Guanabenz, reference compound] |  |  |  |  |  | did not affect |  |  | does not inhibit PP1c | not to PP1c alone |
